Measured values reported in patent publication US10836792B2, “Retro-inverso peptide inhibitors of cell migration, extracellular matrix and endothelial invasion by tumor cells” (ISTITUTO NAZIONALE TUMORI IRCCS “FONDAZIONE G. PASCALE”, priority 2016, dated 2020).

Tests used:
HT1080 cells [1] = experiment: FBS-directed matrigel invasion of HT1080 cells (xCELLigence RTCA); format: cell-based, human; conditions: 10 nM peptide, growth medium, 20 hrs
Text: FIG. 5 Peptides RI-1, RI-2, RI-3, RI-4 and RI-5 reduced by 33%, 35%, 81%, 52% and 11%, respectively, the extent of FBS-directed matrigel invasion of HT1080 cells (A), as assessed in real time using the xCELLigence RTCA technology. The inhibitory effect of RI-3 is dose-dependent (B) (Example 5).
Cell migration is a prerequisite for cancer invasion. Therefore, we investigated whether retro-inverso peptides prevent matrigel invasion of HT1080 cells using the xCELLigence RTCA technology. Cells were seeded on polymerized matrigel and lower chambers were filled with DMEM (CTRL), growth medium (None) or growth medium with 10 nM the indicated peptides (A), or with increasing concentrations of RI-3 (B). Matrigel invasion was monitored in real time for 20 (A) or 18 (B) hrs at 37° C., 5% CO2 and the impedance values were automatically monitored as changes in cell index. Data represent means±SD from quadruplicate experiments, each representative of 2 replicates. HT1080 cells were able to cross matrigel in the presence of 10% FBS. All retro-inverso peptides caused a reduction of FBS-directed cell migration although to different extent.

HT1080 cells [2] = experiment: FBS-directed migration of HT1080 cells in Boyden chambers; format: cell-based, human; conditions: 10 nM peptide, 10% FBS, 4 hrs
Procedure: FIG. 4 Retro-inverso peptides inhibit FBS-directed migration of HT1080 cells in a dose dependent manner (Example 4).
To assess whether retro-inverso peptides exert some effect on directional cell migration, HT1080 cells were allowed to migrate for 4 hrs in Boyden chambers toward serum-free medium (CTRL), 10% FBS (None) or 10% FBS mixed with peptides, each tested at 10 nM concentration. For quantitative analysis, the basal values assessed in the absence of FBS (CTRL) was taken as 100% and all values were reported relative to that. Data are the means±SD of two independent experiments, performed in triplicate. Statistical significance calculated against None with *p<0.01, **p<0.001 (A). All retro-inverso peptides caused a reduction of FBS-directed cell migration although to different extent. Peptides RI-1, RI-2, RI-3, RI-4 and RI-5 reduced by 49%, 46%, 65%, 9% and 6%, respectively, the extent of FBS-directed cell migration. Similar results were obtained when, HT1080 cell migration was monitored in real time for 18 hrs at 37° C., 5% CO2 by the xCELLigence system. Data represent mean±SD from a quadruplicate experiment representative of 2 replicates (B). Then, HT1080 cells were allowed to migrate in Boyden chambers toward 10% FBS plus increasing concentrations of RI-3, and data were expressed as a percentage of cells migrated toward FBS alone (100%) Inhibitory effect of RI-3 is dose-dependent, it starts in the high fM range, it seems to level off in the nM range and reaches an overall 50% reduction at 1×10^−13M (C).

sarcoma cell = conditions: mouse model of lung colonization; cited from earlier work
[3] = system: human fibrosarcoma HT1080 cells; experiment: Migration of HT1080 cells toward the peptides as chemoattractant (xCELLigence RTCA); format: cell-based; conditions: 10 nM peptide as chemoattractant, 18 hrs, cell index
Text: Cell index due to the adhesion of migrating cells to microelectrodes are reported in (A); analysis of slopes representing the change rate of cell index generated in the time range 0-12 hr are reported in (B).
We assessed whether new generated retro-inverso peptides elicit themselves cell migration of human fibrosarcoma HT1080 cells. […] The results are depicted in FIG. 2. Data represent mean±SD from a quadruplicate experiment representative of 2 replicates (A).

Row | Substance | reduction of the extent of FBS-directed cell invasion (matrigel) (HT1080 cells [1]) [%] | reduction of the extent of FBS-directed cell migration (HT1080 cells [2]) [%] | inhibition of sarcoma cell invasion (sarcoma cell) | cell migration triggered by the peptide [3]
1 | 3-phenylpropionyl-D-Arg-Aib-D-Arg-NH2 [RI-5] | 11 | 6 |  | 
2 | Ac-(D)-Tyr-(D)-Arg-(D)-Glu-(D)-Arg-NH2 [RI-1] | 33 | 49 |  | 
3 | Ac-(D)-Tyr-(D)-Arg-(D)-Ser-(D)-Arg-NH2 [RI-2] | 35 | 46 |  | 
4 | Ac-L-Arg-Aib-L-Arg-D-Cα(Me)Phe-NH2 [UPARANT] |  |  | does not inhibit sarcoma cell invasion | 
5 | N-formyl-methionyl-leucyl-phenylalanine peptide [fMLF] |  |  |  | elicited a considerable cell migration
6 | Phenylacetyl-D-Arg-Aib-D-Arg-NH2 [RI-4] | 52 | 9 |  | 
